# Assay results published in patent US7947851B2, “1,1′-(1,2-ethynediyl)bis-benzene derivatives as PTP 1-B inhibitors” (Merck Serono SA, priority 2004, dated 2011).
# pIC50: −log10 of the molar value. Structures can show the parent of a compound that is named as a salt. Where two headings read alike, the source gives them in different places.
# Assays:
# db/db mice = experiment: In vivo assay in db/db mice (postprandial glycemia); conditions: 30 mg/kg per os, 4 hrs after drug administration, percentage of control (group 1: vehicle treated mice)
# Procedure: The following assay aims at determining the anti-diabetic effect of the test compounds of formula (I) in a model of postprandial glycemia in db/db mice, in vivo.
# The assay was performed as follows:
# A total of 18 db/db mice (about 8-9 weeks; obtained from IFFACREDO, l'Arbreste, France) were fasted during 20 hours.
# 2 groups, each consisting of 6 animals were formed: • Group 1: The animals were administered (per os) a dose of 10 mL/kg of vehicle (control). • Group 2: The animals were administered (per os) a dose of 30 mg/kg of the test compound according to formula (I) solubilized in the vehicle.
# After oral administration of the compounds of formula (I) solubilized or suspended in CarboxyMethylCellulose (0.5%), Tween 20 (0.25%) and water as vehicle, the animals had access to conmnercial food (D04, UAR, Villeinoisson/Orge, France) ad libitum. The diabetic state of the mice was verified by determining the blood glucose level before drug administration. Blood glucose and serum insulin levels were then determined 4 hrs after drug administration.
# The determination of the blood glucose level was performed using a glucometer (Precision Q.I.D., Medisense, Abbot, ref. 212.62.31).
# The determination of the Insulin level was performed using an ELISA kit (Crystal CHEM, Ref. INSK R020).
# Changes in blood glucose and serum insulin of drug treated mice were expressed as a percentage of control (group 1: vehicle treated mice).
# SHP-2 = target: T1, SHP-2 (Homo sapiens, UniProt Q06124); experiment: PTP Enzyme Assay (DiFMUP), SHP-2; type: biochemical; conditions: 20 μM DiFMUP, catalytic core of human recombinant PTP; read-out: IC50 value in respect of SHP-2
# T1 construct: using the catalytic core of a human recombinant PTP as the enzyme; made in house
# T1 sequence (Q06124 247-517 limits assumed): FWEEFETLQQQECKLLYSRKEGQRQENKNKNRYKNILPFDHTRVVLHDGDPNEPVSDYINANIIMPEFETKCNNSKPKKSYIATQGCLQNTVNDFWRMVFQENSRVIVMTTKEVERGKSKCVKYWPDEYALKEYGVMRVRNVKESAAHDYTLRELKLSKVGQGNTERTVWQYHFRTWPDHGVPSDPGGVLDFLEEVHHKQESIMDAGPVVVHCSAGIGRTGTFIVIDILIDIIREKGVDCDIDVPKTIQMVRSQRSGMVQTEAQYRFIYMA
# Procedure: (§1) The PTP Enzyme Assay aims at determining the extent of inhibition of PTP's, e.g. of PTP1B, SEP-1, SHP-2, GLEPP-1 or PTP-H1 in the presence of a test compound of lo formula (I). The inhibition is illustrated by IC50 values which denote the concentration of test compound necessary to achieve an inhibition of 50% of said PTP's using the following concentration of the PTP substrate DiFMUP: • 5 μM DiFMUP for PTP1B and PTP-H1; • 20 μM DiFMUP for SHP-1 and SHP-2; • 30 μM DiFMUP for GLEPP-1. a) PTPs Cloning […]
# (§2) Assays were performed in a 96 well plate format, using the catalytic core of a human recombinant PTP as the enzyme and 6,8-DiFluoro-4-MethylUmbelliferyl Phosphate (DiFMUP, Molecular Probes, D-6567) as a substrate. […] The reaction ran for 30 minutes at room temperature before reading the fluorescence intensity (integral or intensity) on a Perkin-Elmer Victor 2 spectrofluorimeter (excitation of 6,8-difluoro-7-hydroxy coumarin is at 355 nm, the emission at 460 nm, for 0.1 s). The percentage of inhibition is determined by measuring the relative fluorescence ion absence of a test compound (PTP inhibitor), i.e. with the solvent alone (5% DMSO). The IC50 values for inhibition were determined in triplicates.
# GLEPP-1 = target: T2, GLEPP-1 (Homo sapiens, UniProt Q16827); experiment: PTP Enzyme Assay (DiFMUP), GLEPP-1; type: biochemical
# T2 construct: using the catalytic core of a human recombinant PTP as the enzyme; made in house
# T2 sequence (Q16827 938-1195 limits assumed): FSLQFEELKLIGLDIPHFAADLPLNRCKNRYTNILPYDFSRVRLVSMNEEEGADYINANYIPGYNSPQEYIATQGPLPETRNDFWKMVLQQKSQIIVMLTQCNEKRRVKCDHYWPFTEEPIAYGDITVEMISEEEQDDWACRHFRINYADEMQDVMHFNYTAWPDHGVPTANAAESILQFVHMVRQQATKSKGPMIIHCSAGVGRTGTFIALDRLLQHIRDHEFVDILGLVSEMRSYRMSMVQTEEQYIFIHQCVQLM
# Source text: The PTP Enzyme Assay aims at determining the extent of inhibition of PTP's, e.g. of PTP1B, SEP-1, SHP-2, GLEPP-1 or PTP-H1 in the presence of a test compound of lo formula (I).
# (§3) The DiFMUP assay allows to follow the dephosphorylation of DiFMUP (6,8-DiFluoro-4-MethylUmbelliferyl Phosphate)—which is the PTP substrate—mediated by PTP into its stable hydrolysis product, i.e. DiFMU (6,8-difluoro-7-hydroxy coumarin). Due to its rather low pKa and its high quantum yield, DiFMU allows to measure both acidic and alkaline phosphatase activities with a great sensitivity.
# (§4) Compounds to be tested were dissolved in 100% DMSO at a concentration of 2 mM. Subsequent dilutions of the test compounds (to yield a concentration of 100, 30, 10, 3, 1,0.3, 0.1, 0.03, 0.01, 0.001 μM) were performed in 60% DMSO manually. 8 μl of diluted compound or vehicle (60% DMSO=control) was distributed to a black Costar 96 well plate. 42 μl of human recombinant PTP enzyme diluted in assay buffer (20 mM Tris HCl pH 7.5, 0.01% IGEPAL CA-630, 0.1 mM ethylenediaminetetracetic acid, 1 mM DL-Dithiothreitol) can be added to the dilutions of compound or vehicule (distributed to a black Costar 96-well plate), followed by 50 μl of DiFMUP diluted in the assay buffer. The reaction ran for 30 minutes at room temperature before reading the fluorescence intensity (integral or intensity) on a Perkin-Elmer Victor 2 spectrofluorimeter (excitation of 6,8-difluoro-7-hydroxy coumarin is at 355 nm, the emission at 460 nm, for 0.1 s). The percentage of inhibition is determined by measuring the relative fluorescence ion absence of a test compound (PTP inhibitor), i.e. with the solvent alone (5% DMSO). The IC50 values for inhibition were determined in triplicates.
# PTP1B = target: T3, PTP1B (Homo sapiens, UniProt P18031); experiment: PTP Enzyme Assay (DiFMUP), PTP1B; type: biochemical; conditions: 5 μM DiFMUP, catalytic core of human recombinant PTP; read-out: IC50 value in respect of PTP1B
# T3 construct: using the catalytic core of a human recombinant PTP as the enzyme; made in house
# T3 sequence (P18031 3-277 limits assumed): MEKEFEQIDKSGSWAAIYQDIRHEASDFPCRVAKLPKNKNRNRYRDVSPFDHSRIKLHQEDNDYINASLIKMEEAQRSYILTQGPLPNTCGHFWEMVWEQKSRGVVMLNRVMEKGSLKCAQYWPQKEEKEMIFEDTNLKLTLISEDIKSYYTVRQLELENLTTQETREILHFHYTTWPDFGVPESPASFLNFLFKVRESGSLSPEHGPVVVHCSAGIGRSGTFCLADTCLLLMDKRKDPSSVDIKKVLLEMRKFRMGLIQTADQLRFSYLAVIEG
# Procedure: The PTP Enzyme Assay aims at determining the extent of inhibition of PTP's, e.g. of PTP1B, SEP-1, SHP-2, GLEPP-1 or PTP-H1 in the presence of a test compound of lo formula (I). The inhibition is illustrated by IC50 values which denote the concentration of test compound necessary to achieve an inhibition of 50% of said PTP's using the following concentration of the PTP substrate DiFMUP: • 5 μM DiFMUP for PTP1B and PTP-H1; • 20 μM DiFMUP for SHP-1 and SHP-2; • 30 μM DiFMUP for GLEPP-1. a) PTPs Cloning
# The cloning and expression of the catalytic domain e.g. of PTP1B, may be performed as described in J. Biol. Chem. 2000, 275(13), pp 9792-9796.
# as §3
# as §4, with “Assays were performed in a 96 well plate format, using the catalytic core of a human recombinant PTP as the enzyme and 6,8-DiFluoro-4-MethylUmbelliferyl Phosphate (DiFMUP, Molecular Probes, D-6567) as a substrate. Compounds” for “Compounds”, “42 μl of human recombinant PTP enzyme diluted in assay buffer (20 mM Tris HCl pH 7.5, 0.01% IGEPAL CA-630, 0.1 mM ethylenediaminetetracetic acid, 1 mM DL-Dithiothreitol) can be added to the dilutions of compound or vehicule (distributed to a black Costar 96-well plate), followed by 50 μl of DiFMUP diluted in the assay buffer.” left out
# SHP-1 = target: T4, SHP-1 (Homo sapiens, UniProt P29350); experiment: PTP Enzyme Assay (DiFMUP), SHP-1; type: biochemical; conditions: 20 μM DiFMUP, catalytic core of human recombinant PTP; read-out: IC50 value in respect of SHP-1
# T4 construct: using the catalytic core of a human recombinant PTP as the enzyme; made in house
# T4 sequence (P29350 244-515 limits assumed): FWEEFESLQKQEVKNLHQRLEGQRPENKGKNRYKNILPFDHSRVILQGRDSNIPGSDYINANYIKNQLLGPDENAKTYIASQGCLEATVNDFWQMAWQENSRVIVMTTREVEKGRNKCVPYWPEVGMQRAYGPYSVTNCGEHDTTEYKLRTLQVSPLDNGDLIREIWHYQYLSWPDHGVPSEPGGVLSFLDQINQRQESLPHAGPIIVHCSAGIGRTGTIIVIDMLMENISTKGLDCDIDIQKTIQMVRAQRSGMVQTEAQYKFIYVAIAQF
# Procedure: as §1, §2
# PTP-H1 = target: T5, PTP-H1 (Homo sapiens, UniProt P26045); experiment: PTP Enzyme Assay (DiFMUP), PTP-H1; type: biochemical; conditions: 5 μM DiFMUP, catalytic core of human recombinant PTP; read-out: IC50 value in respect of PTP-H1
# T5 construct: using the catalytic core of a human recombinant PTP as the enzyme; made in house
# T5 sequence (P26045 646-901 limits assumed): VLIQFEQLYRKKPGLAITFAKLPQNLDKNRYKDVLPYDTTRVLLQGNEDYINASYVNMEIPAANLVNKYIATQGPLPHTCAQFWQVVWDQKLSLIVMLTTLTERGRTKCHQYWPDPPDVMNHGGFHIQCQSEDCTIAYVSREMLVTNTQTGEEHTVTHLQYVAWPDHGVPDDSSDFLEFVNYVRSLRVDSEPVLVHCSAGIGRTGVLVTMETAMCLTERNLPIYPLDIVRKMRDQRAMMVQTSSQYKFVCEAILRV
# Procedure: as §1, §2
# [1] = 30 μM DiFMUP, catalytic core of human recombinant PTP, read-out: IC50 value in respect of GLEPP-1
pIC50 (GLEPP-1; [1]),pIC50 (PTP1B),Compound,Decrease in blood glucose (db/db mice),Decrease in serum insulin (db/db mice),other results
–,–,5-[(1-{4-[(4-butylphenyl)ethynyl]phenyl}pentyl)oxy]-2-hydroxybenzoic acid [Example 16],37%,28%,–
6.21,6.29,"CCCCc1ccc(C#Cc2ccc(CN(Cc3ccc(OCC(=O)O)cc3)S(=O)(=O)/C=C/c3ccccc3)cc2)cc1 [Example 8, {4-[({4-[(4-butylphenyl)ethynyl]benzyl}{[(E)-2-phenylvinyl]sulfonyl}-amino)methyl]phenoxy}acetic acid]",–,–,pIC50 (SHP-2): 6.10; pIC50 (SHP-1): 6.09; pIC50 (PTP-H1): 5.02
–,–,"CCCCCCN(Cc1ccc(C#Cc2ccc(CCCC)cc2)cc1)C(=O)c1ccc(O)c(C(=O)O)c1 [Example 19, 5-[{{4-[(4-butylphenyl)ethynyl]benzyl}(hexyl)amino]carbonyl}-2-hydroxybenzoic acid, N-methyl-D-glucamine (i.e. 1-deoxy-1-(methylamino)-glucitol) salt]",20%,43%,–
6.68,7.10,"CCCCc1ccc(C#Cc2ccc(CN(CCC(C)(C)C)c3ccc(F)c(C(=O)O)c3)cc2)cc1 [Example 35, 5-[{4-[(4-butylphenyl)ethynylbenzyl}(3,3-dimethylbutyl)amino]-2-fluorobenzoic acid, N-methyl-D-glucamine (i.e. 1-deoxy-1-(methylamino)glucitol)salt]",–,–,–
–,–,"CCCCCCN(C(=O)c1ccc(C#Cc2ccc(CCCC)cc2)cc1)c1ccc(F)c(C(=O)O)c1 [Example 55, 5-[{4-[(4-butylphenyl)ethynyl]benzoyl}(hexyl)amino]-2-fluorobenzoic acid, N-methyl-D-glucamine (i.e. 1-deoxy-1-(methylamino)glucitol)salt]",46%,75%,–

Compound,pIC50 (GLEPP-1; [1]),pIC50 (PTP1B),Decrease in blood glucose (db/db mice),Decrease in serum insulin (db/db mice),other results
"CCCCCCN(Cc1ccc(C#Cc2ccccc2)cc1)c1ccc(F)c(C(=O)O)c1 [Example 30, 2-fluoro-5-{hexyl[4-(phenylethynyl)benzyl]amino}benzoic acid, N-methyl-D-glucamine (i.e. 1-deoxy-1-(methylamino)glucitol) salt]",–,6.10,–,–,pIC50 (GLEPP-1): 6.07
